Test results from publication PMC4356375, “Snapshots of ligand entry, malleable binding and induced helical movement in P-glycoprotein” (Acta Crystallographica Section D: Biological Crystallography, 2015).

Columns and labels:
P-gp [1] = target: T1, P-gp (Mus musculus, UniProt P21447); assay: Stimulation of basal ATPase activity of purified P-gp; format: biochemical; conditions: 310 K
T1 construct: inferred from the Ni-NTA purification; made in house; host or cells: Pichia pastoris
Procedure: The ATPase activity of P-gp was measured at 310 K using the ATP-regenerating system described by Vogel & Steinhart (1976[▶]) as modified by Urbatsch et al. (1995[▶]). Briefly, 1 µg P-gp was added to 100 µl 50 mM Tris–HCl pH 7.5 buffer containing 10 mM ATP, 12 mM MgCl2, 6 mM phosphoenolpyruvate, 1 mM NADH, 10 units of lactate dehydrogenase, 10 units of pyruvate kinase and test compounds over a range of concentrations. ATP hydrolysis was determined by the decrease in NADH absorbance at OD340 using a Filtermax F5 Multiplate Spectrophotometer. The ATPase activity was calculated using the equation ΔOD/(∊ × [protein] × time), where ΔOD is the change in absorbance and ∊ is the extinction coefficient of NADH. The concentration of purified P-gp was estimated by comparing the SDS–PAGE intensity of Coomassie-stained protein bands with known amounts of BSA. EC50 values were calculated using GraphPad Prism (GraphPad Software, San Diego, California, USA) using nonlinear regression (curve fit) from the entire concentration range.
Gene-optimized mouse P-gp (ABCB1a; GenBank JF834158) was expressed in Pichia pastoris in 10 l cultures in a BioFlo 415 bioreactor (New Brunswick Scientific) and was induced by the slow addition of methanol (3.6 ml per hour per litre of culture volume) overnight as described previously (Aller et al., 2009[▶]; Bai et al., 2011[▶]). […]

P-gp [2] = target: T2, P-gp (Cricetulus griseus, UniProt P21448); assay: Calcein-AM transport assay in P-gp-overexpressing CR1R12 cells; format: cell-based, Chinese hamster; conditions: calcein-AM 0.25 µM, room temperature, read-out: IC50 inhibition of calcein-AM export
T2 construct: endogenous in cells; host or cells: Chinese hamster ovary CR1R12 cells (colchicine-selected; parental AUXB1)
T2 sequence (P21448 whole entry): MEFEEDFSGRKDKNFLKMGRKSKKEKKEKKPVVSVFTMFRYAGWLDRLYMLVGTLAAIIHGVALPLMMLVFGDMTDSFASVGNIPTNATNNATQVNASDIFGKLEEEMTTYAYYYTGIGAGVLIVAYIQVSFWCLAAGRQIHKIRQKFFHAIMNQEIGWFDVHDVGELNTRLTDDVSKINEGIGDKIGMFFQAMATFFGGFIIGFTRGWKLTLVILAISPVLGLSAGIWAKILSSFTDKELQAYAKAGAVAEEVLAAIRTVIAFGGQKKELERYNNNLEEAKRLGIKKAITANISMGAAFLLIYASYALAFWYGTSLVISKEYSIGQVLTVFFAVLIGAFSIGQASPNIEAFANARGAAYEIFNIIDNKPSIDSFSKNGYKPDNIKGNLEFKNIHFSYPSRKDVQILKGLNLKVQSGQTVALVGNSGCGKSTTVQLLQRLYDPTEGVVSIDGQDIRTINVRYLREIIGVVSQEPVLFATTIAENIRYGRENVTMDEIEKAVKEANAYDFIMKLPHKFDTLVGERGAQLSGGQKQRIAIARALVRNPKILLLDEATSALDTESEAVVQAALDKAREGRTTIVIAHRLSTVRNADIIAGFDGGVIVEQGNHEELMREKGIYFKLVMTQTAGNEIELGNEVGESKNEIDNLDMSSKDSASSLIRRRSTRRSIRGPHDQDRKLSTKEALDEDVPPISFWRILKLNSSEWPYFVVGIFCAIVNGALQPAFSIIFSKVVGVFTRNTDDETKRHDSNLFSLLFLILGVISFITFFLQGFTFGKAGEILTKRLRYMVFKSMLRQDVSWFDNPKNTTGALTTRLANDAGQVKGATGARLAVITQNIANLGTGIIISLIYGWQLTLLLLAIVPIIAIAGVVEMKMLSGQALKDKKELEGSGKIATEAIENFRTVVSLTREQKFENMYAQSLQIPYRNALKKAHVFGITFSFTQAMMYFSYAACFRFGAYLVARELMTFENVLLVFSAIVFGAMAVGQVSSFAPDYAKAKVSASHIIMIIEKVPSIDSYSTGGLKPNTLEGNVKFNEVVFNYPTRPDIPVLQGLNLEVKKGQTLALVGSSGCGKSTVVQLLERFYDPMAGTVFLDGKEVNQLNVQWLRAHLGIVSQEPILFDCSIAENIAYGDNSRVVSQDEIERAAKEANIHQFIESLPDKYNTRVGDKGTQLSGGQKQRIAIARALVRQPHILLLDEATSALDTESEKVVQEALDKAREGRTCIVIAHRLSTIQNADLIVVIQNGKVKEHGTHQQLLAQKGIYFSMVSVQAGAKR
Procedure: It has commonly been used in fluorescence-based transport assays for P-gp in whole-cell systems (Al-Shawi & Senior, 1993[▶]). Chinese hamster ovary CR1R12 cells were cultured in the presence of 5 µg ml^−1 colchicine to maintain P-gp overexpression. In general, ∼5 × 10^5 CR1R12 cells per well were pretreated with test compounds in serially increasing concentrations at room temperature for 15 min; calcein-AM (0.25 µM) was then added and incubated for an additional 15 min at room temperature while monitoring the fluorescence intensity (excitation at 485 nm, emission at 535 nm). 100% was the maximum fluorescence achieved by full inhibition of P-gp in CR1R12 cells. The means and standard deviations were obtained from quadruplet experiments.

CR1R12 cells = assay: Sensitization assay: growth of CR1R12 cells with colchicine (sulforhodamine B); format: cell-based, Chinese hamster
Procedure: (§1) CR1R12 cells were grown in the presence of increasing concentrations of colchicine for 3 d at given concentrations of test compounds. Cell densities were determined using the sulforhodamine B colorimetric assay (Vichai & Kirtikara, 2006[▶]). 100% is defined as the growth in the absence of colchicine. Parental AUXB1 cells were included as controls. […]
(§2) Figure S4 Sensitization of CR1R12 cells to the anti-cancer drug colchicine by homotrimeric cyclopeptides. Relative to parental control AUXB1 cells, P-gp-overexpressing CR1R12 cells are ~200 times more resistant to the anticancer drug colchicine (gray lines in all panes). Their 50% growth […]
(§3) Presence of (a) QZ-Ala, green, (b)
(§4) QZ-Val, blue, and (d) QZ-Phe, red, in the growth media sensitized the CR1R12 cells to colchicine in a concentration-dependent manner with full reversal of P-gp mediated multidrug resistance seen at 2 […]
(§5) increasing concentrations of (c) QZ-Leu, yellow, also sensitized CR1R12 cells to colchicine, where […]
(§6) higher concentrations. Shown are representative data from three independent experiments. The concentrations are plotted in log scale.

[3] = system: P-gp-over-expressing CR1R12, and parental control AuxB1, cells; assay: Cytotoxicity of the cyclopeptides to CR1R12 and parental AuxB1 cells (Fig. S3); format: cell-based, Chinese hamster
Procedure: Figure S1 NMR spectra of QZ-Ala, QZ-Leu and QZ-Phe. 13C (top) and 1H (bottom) spectra are […]
Figure S2 Structure based alignment. Two views of P-gp depicting Cα position shifts between the new (P-gp native at 3.4 Å, reported here) and previously published model (pdb code: 4KSB). Changes are depicted by color with red indicating the largest shift in Cα position (8.35 Å). Alignments and pairwise Cα RMSD calculations were calculated using the python module ‘ColorByRMSD’ within the PyMOL Molecular Graphics System (Schrödinger, LLC)
Figure S3 Cytotoxicity of the homotrimeric cyclopeptide compounds to P -gp-over-expressing CR1R12, and parental control AuxB1, cells using Calcein-AM transport assay. P-gp mediates mild […]
of this compound at high concentrations. The mean and SD of quadruplet experiments are shown; data were fit using the Hill equation. QZ-Ala, QZ-Val, QZ-Leu and QZ-Phe are drawn in green, blue, yellow and red curves, respectively. The concentrations are plotted in log scale.
as §2
Presence of (a) QZ-Ala, green, (b) […]

[4] = Solubility remark (Fig. S3 legend); format: physicochemical; conditions: at high concentrations
AUXB1 cells = assay: Growth inhibition of parental control AUXB1 cells by colchicine; format: cell-based, Chinese hamster; conditions: Cricetulus griseus, read-out: 50% growth inhibition (GI50)
Procedure: as §1, §2, §3, §4, §5, §6

T1 sequence (P21447 whole entry): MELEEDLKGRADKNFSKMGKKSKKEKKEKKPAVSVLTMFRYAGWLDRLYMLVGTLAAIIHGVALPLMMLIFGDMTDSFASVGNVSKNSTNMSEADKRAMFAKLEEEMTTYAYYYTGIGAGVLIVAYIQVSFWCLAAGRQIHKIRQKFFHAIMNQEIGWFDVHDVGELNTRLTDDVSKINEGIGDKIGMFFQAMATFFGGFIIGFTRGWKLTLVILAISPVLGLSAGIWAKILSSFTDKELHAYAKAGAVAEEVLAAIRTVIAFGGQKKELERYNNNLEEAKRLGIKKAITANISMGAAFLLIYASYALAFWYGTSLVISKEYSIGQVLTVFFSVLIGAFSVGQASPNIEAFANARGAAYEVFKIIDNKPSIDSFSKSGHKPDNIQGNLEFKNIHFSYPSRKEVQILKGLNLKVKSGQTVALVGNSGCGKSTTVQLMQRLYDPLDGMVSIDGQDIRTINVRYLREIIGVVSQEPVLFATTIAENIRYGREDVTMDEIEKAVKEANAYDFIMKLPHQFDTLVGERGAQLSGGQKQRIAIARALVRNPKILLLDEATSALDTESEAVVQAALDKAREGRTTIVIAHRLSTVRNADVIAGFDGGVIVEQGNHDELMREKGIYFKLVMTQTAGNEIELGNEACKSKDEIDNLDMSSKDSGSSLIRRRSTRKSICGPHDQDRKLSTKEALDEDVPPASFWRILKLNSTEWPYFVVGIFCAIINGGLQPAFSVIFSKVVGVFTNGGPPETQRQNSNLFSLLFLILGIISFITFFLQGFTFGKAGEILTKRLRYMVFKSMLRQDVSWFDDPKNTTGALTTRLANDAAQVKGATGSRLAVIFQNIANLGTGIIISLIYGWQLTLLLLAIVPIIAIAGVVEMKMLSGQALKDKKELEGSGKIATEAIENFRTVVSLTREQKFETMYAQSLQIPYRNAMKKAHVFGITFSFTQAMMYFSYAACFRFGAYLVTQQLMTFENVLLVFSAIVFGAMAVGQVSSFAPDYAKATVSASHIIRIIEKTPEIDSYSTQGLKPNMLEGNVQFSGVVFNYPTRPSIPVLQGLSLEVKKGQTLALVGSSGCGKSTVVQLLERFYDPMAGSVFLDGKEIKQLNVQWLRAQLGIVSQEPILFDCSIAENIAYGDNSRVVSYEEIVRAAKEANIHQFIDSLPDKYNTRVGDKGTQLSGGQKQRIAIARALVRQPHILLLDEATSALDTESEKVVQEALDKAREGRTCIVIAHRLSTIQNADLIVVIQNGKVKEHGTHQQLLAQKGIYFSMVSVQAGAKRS

C[C@@H]1NC(=O)c2c[se]c(n2)[C@H](C)NC(=O)c2c[se]c(n2)[C@H](C)NC(=O)c2c[se]c1n2 [QZ-Ala]
EC50 (P-gp [1]): 0.92 µM
IC50 (P-gp [2]): 0.14 µM

CC(C)C[C@@H]1NC(=O)c2c[se]c(n2)[C@H](CC(C)C)NC(=O)c2c[se]c(n2)[C@H](CC(C)C)NC(=O)c2c[se]c1n2 [QZ-Leu]
IC50 (P-gp [2]): 5.4 µM
Cytotoxicity (in words) (CR1R12 cells; CR1R12 cells, higher concentrations): became cytotoxic

O=C1N[C@@H](Cc2ccccc2)c2nc(c[se]2)C(=O)N[C@@H](Cc2ccccc2)c2nc(c[se]2)C(=O)N[C@@H](Cc2ccccc2)c2nc1c[se]2 [QZ-Phe]
IC50 (P-gp [2]): 24 µM
Full growth inhibition (in words) [3]: not observed
Solubility (in words) [4]: limited solubility

CC(C)[C@@H]1NC(=O)c2c[se]c(n2)[C@H](C(C)C)NC(=O)c2c[se]c(n2)[C@H](C(C)C)NC(=O)c2c[se]c1n2 [QZ-Val]
IC50 (P-gp [2]): 1.7 µM

COc1cc2c(c(OC)c1OC)-c1ccc(OC)c(=O)cc1[C@@H](NC(C)=O)CC2 [colchicine]
Resistance of CR1R12 cells relative to AUXB1 cells (CR1R12 cells; CR1R12 vs parental AUXB1): ~ 200 times
GI50 (CR1R12 cells; Cricetulus griseus, CR1R12 cells, no cyclopeptide, read-out: 50% growth inhibition (GI50)): 27 µM
GI50 (AUXB1 cells): 0.14 µM
